Data as given in patent EP4793271A1, “NEUROPROTECTIVE AGENT” (National Center of Neurology and Psychiatry, priority 2023, dated 2025).

What follows are compounds tested against T1, hSARM1 (Homo sapiens, UniProt Q6SZW1) (assay: Human SARM1 activity measurement in HEK293 cells transiently transfected with ΔN-hSARM1 (PC6 fluorescent probe)). Conditions: inhibition rate; compound 30 µM; PC6 50 µM; HEK293 cells expressing ΔN-hSARM1; approximately 48 hours from transfection; read-out: Evaluation on hSARM1 inhibitory.
T1 sequence (Q6SZW1 28-724): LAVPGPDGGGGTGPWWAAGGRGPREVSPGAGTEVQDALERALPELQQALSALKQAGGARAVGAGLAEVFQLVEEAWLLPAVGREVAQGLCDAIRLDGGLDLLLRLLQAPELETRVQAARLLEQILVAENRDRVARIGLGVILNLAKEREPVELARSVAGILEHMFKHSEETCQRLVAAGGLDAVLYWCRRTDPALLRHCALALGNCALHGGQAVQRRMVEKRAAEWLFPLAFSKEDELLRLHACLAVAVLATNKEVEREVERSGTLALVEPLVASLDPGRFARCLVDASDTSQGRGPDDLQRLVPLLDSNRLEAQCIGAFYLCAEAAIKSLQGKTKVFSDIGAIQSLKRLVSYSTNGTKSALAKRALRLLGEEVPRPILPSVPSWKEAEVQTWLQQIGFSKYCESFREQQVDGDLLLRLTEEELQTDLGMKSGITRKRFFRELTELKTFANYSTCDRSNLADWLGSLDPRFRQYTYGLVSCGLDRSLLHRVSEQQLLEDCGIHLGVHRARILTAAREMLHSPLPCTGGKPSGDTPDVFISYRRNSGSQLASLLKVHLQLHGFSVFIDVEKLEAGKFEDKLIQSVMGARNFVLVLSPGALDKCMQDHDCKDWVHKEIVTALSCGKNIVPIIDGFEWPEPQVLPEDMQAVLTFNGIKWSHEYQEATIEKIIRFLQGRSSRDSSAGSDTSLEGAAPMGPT
Format: cell-based
Parameters: expressed in transfected cells; host or cells: HEK293, pcDNA3 expression vector
Method in brief: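 HEK293 cells in nicotinamide-free DMEM with 5 μM nicotinamide, transiently transfected with mitochondrial-targeting-deleted ΔN-hSARM1; PC6 base-exchange fluorescent probe (50 μM) plus compound (30 μM) added ~8 h post-transfection. Fluorescence (ex 405/em 525 nm) read ~48 h from transfection; inhibition % versus transfected DMSO control, untransfected background subtracted.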

| inhibition at 30 µM [%] | SMILES |
| --- | --- |
| > 75 | O=C(NCCCOCCOCCCNC(=O)c1cccnc1)c1cccnc1 [compound 35] |
| > 50 | CC(C)(C)C(=O)Nc1ccc(CNC(=O)c2cccnc2)cn1 [compound 76] |
| > 50 | O=C(NCc1ccc(NC(=O)c2ccccc2)nc1)c1cccnc1 [compound 105] |
